From patent US20090221095A1, “Colorimetric Screening of DNA Binding/Intercalating Agents with Gold Nanoparticle Probes” (NORTHWESTERN UNIVERSITY, priority 2005, published 2009)

Legend:
Assay type in all cases: binding
[1] = tested on: unmodified duplex DNA (DNA-1: 5′-TAACAATAA-3′, DNA-2: 5′-TTATTGTTA-3′); experiment: Melting temperature of solution-phase unmodified duplex DNA (no nanoparticles); details: for Tm, melting temperature of solution-phase unmodified DNA: 2 uM duplex DNA, 5 uM DNA binder, control (no DNA binder) 19.1; for relative trend in binding strength: from control experiments, Tm of solution-phase unmodified DNA (Table 2)
Procedure: The assay is initiated by mixing NP-1 and NP-2 (1.5 nM each) in a 1:1 molar ratio in 10 mM PBS buffer (pH=7.0, NaCl 0.1 M. The melting temperatures of the nanoassemblies (NP-1 and NP-2) were then determined in the presence of 4′,6-diamidino-2-phenylindole (DAPI), ellipticine (EIPT), Amsacrine (AMSA), daunorubicin (DNR), anthraquinone-2-carboxylic acid (AQ2A), ethidium bromide (EB), and 9-aminoacridine (9-AA) (5 μM), respectively. UV melting profiles were measured by monitoring the absorbance at 520 nm at a scan rate of 0.5° C. min^−1. Melting temperatures were determined by taking the maxima of the first derivative of the melting curves. Control experiments were run by determining the melting temperatures of unmodified duplex DNA (DNA-1: 5′-TAACAATAA-3′, DNA-2: 5′-TTATTGTTA-3′) in the presence of all seven intercalators shown in Table 1.
(§1) To determine the Tm of the duplex DNA in the presence of DNA binders, 2 μM duplex DNA and 5 μM DNA binder were combined in 0.3 M NaCl 10 mM PBS. To determine the Tm of the triplex DNA in the presence of DNA binders, 1 μM of each strand and 6 μM of each DNA binder were combined in 0.5 M NaCl 10 mM PBS. UV-vis melting curves were measured on a CARRY 500 spectrophotometer equipped with a circulating bath. The melting process was monitored by measuring the change in extinction at 260 nm. The solutions were stirred continuously with a magnetic stir bar as the solution temperature was increased at a rate of 0.5° C./min. The first derivative generated from the melting curves was used to determine the Tm.

[2] = tested on: triplex DNA (DNA-1, DNA-2, DNA-3); experiment: UV melting (260 nm) of unmodified triplex DNA-1, DNA-2, DNA-3 (no nanoparticles); details: duplex melting transition; solution-phase unmodified DNA, 1 μM each strand, 6 μM binder, 0.5 M NaCl 10 mM PBS
Procedure: To compare the results from the previous examples with more traditional screening techniques, all eight intercalators were screened, plus a control, by monitoring UV absorbance melting curves (260 nm) of unmodified DNA-1, DNA-2, and DNA-3 (1 μM each), with each intercalator (10 μM), (DNA-1; 3′ TTCTTCTTTTTT CT-5′. DNA-2: 5′-TTCTTCTTTTTTCT-3′, DNA-3: 5′-AAGAAGAAAAAA-3′). (FIG. 2B). The melting experiment performed in the presence of BePl has two melting transitions. The first Tm at 34.8° C. is associated with the denaturation of the triplex structure and the second Tm at 61.4° C. is representative of the corresponding duplex.
as §1
A melting transition associated with the triple helix was found only for experiments performed in the presence of BePI (34.8° C.) and CORA (17.1° C.) where BePI is determined to be the stronger binder. This is in agreement with the results determined by the chip-based scanometric method described above.

[3] = tested on: duplex DNA on chip surface; experiment: Chip-based scanometric detection of duplex DNA binders (silver enhancement); details: binder 5 μM
Procedure: N-Hydroxysuccinimide-activated Codelink glass microarray slides (Amersham, G. E. Healthcare) were arrayed with amine-terminated oligonucleotides (5′-TAA CAA TAA-A10-NH2-3′, Integrated DNA Technologies, Inc.) according to the manufacturer's protocol. The oligonucleotides were printed in triplicate using a GME 418 robotic pin-and-ring microarrayer (Affymetrix).
For scanometric detection of duplex or triplex DNA binding molecules, Au nanoparticles (1 nM) and DNA binding molecules (5 μM) in 10 mM PBS buffer of varying NaCl concentrations were added to the microarray slide under hybridization wells (Nanosphere, Inc.). For detection of triplex binders, 150 nM DNA-3 was added. DNA hybridization proceeded for 30 min (for duplex DNA binders) or 1 h (for triplex DNA binders) in a humidity chamber. After hybridization, the slides were washed three times with 0.5 M NaNO3 containing 0.02% Tween 20. The arrays were dried using a benchtop spinner. Silver enhancement solution (Nanosphere, Inc.) was added for Au-NP signal amplification (1 mL total volume/array, 1.5-min development time for duplex DNA binding molecules and 3 min for triplex binding molecules). The reaction was terminated by washing the slides with NANOpure® water and spin-drying. Light-scattering images from the silver-enhanced chips were recorded using the high-resolution Verigene ID system (Nanosphere, Inc.).
Capture strands of synthetic oligonucleotides are patterned on a glass chip using a microarrayer. The DNA chip is then exposed to DNA functionalized Au nanoparticles (complementary to the capture sequence) and a duplex DNA binder. […]
The hybridization of single stranded DNA to form duplex DNA is a reversible process and the stability of the duplex is affected by several factors such as temperature and salt concentration. […] Therefore, by performing the nanoparticle hybridization process in the presence of different duplex DNA binders as a function of temperature, the relative binding strength of duplex DNA binders can be determined.

Row | Compound | Tm, melting temperature of solution-phase unmodified DNA [1] [°C] | Tm 2-1 [2] [°C] | relative trend in binding strength [1] | signal after silver enhancement ([3]; hybridization at 30° C.) | signal after silver enhancement ([3]; temperature further increased above 30° C.)
1 | Nc1c2ccccc2nc2ccccc12 [9-AA, 9-aminoacridine] | 19.3 | 59.1 | – | – | –
2 | O=C(O)c1ccc2c(c1)C(=O)c1ccccc1C2=O [AQ2A, anthraquinone-2-carboxylic acid] | 19.4 | 59.1 | – | – | –
3 | N=C(N)c1ccc(-c2cc3ccc(C(=N)N)cc3[nH]2)cc1 [DAPI, 4′,6-diamidino-2-phenylindole] | 27.8 | 66.3 | DAPI>DNR>EB>other intercalators | leaving the intermediate and strong DNA binders | leaving only the strong duplex DNA binder
4 | COc1cccc2c1C(=O)c1c(O)c3c(c(O)c1C2=O)C[C@@](O)(C(C)=O)C[C@@H]3O[C@H]1C[C@H](N)[C@H](O)[C@H](C)O1 [DNR, daunorubicin] | 25.4 | 61.7 | DAPI>DNR>EB>other intercalators | leaving the intermediate and strong DNA binders | –
5 | Cc1c2ccncc2c(C)c2c1[nH]c1ccccc12 [EIPT, ellipticine] | 20.5 | 59.3 | – | – | –
